Measured values from patent US7655216B2, “Vaccine for activating helper function of CD8+ Tcells” (University of Pittsburgh - Of the Commonwealth of Higher …, priority 2007, dated 2010).
Entries after “also recorded” stand apart in the source; their conditions may differ. The star is where a group is joined. Cbz = O=C(OCc1ccccc1)*; CH2F = FC*

Tests used:
[1] = tested on: immature DCs co-cultured with effector-type CD8+ T cells; type: cell-based, human
[2] = tested on: MC38 adenocarcinoma; design: species or system C57BL/6 mice; conditions: mouse, in vivo, sc
[3] = tested on: PI-9 in DCs; test: Intracellular PI-9 expression in DCs (flow cytometry); type: cell-based, human
Experimental: Flow cytometry. Cell surface phenotype was analyzed by flow cytometry using Beckman Coulter XL. The FITC and PE-labeled isotype controls (mouse IgG1 and IgG2a), anti-human CD86, anti-human perforin were obtained from BD Pharmingen. CD83 monoclonal antibody was purchased from Immunotech and PE-labeled Granzyme B antibody was obtained from Cell Sciences. Goat anti-mouse IgG-FITC conjugated was obtained from Caltag Laboratories. For detection of intracellular PI-9, PI-9 specific mouse monoclonal IgG1 antibody was used as described (Bladergroen et al., J. Immunol. 166:3218-3225 (2001)). Briefly, for intracellular staining of PI-9, DCs were washed and then blocked with human Ig for 10 minutes at room temperature. Subsequently, cells were permeabilized with 300 μl of Permiflow (Invirion, Frankfort, Mich.) for 60 minutes at room temperature and then washed. The cells were stained with unconjugated anti human PI-9 antibody for 20 minutes at room temperature followed by staining with FITC conjugated goat anti-mouse IgG antibody. Granzyme B and perforin staining were performed according to manufacturer's protocol, using Permiflow as permeabilization reagent. […]
Intracellular expression of PI-9 (open profiles) in DCs has been analyzed by flow cytometry before and after (15 and 120 minutes) the exposure to recombinant TNFα (50 ng/ml).

[4] = tested on: SEB-loaded DCs co-cultured with memory-type CD8+ T cells; type: cell-based, human
[5] = tested on: SEB loaded DCs; type: cell-based, human

## O=C(O)CN(CCOCCOCCN(CC(=O)O)CC(=O)O)CC(=O)O [EGTA]
[1]
  DC killing by effector-type CD8+ T cells: completely eliminated

## KAVYNFATC [LCMVgp33-41]
[2]
  induction of MC38-specific CTL activity (killing MC38): more effective in killing MC38 than a DC vaccine loaded only with tumor antigen

## Cbz-IETD-CH2F
[1]
  CTL-induced DC death (survival of DCs): abrogated the CTL-induced DC death

## TNFα
[3]; recombinant TNFα 50 ng/ml, 15 and 120 minutes
  induction of PI-9 in DCs: Rapid induction of PI-9
[1]
  resistance of immature DCs to CTL killing: acquired resistance to CTL killing

## Infliximab
[3]; 10 hour time point
  memory-type CD8+ T cell-induced induction of PI-9 in DCs: blocks
[4]
  DC survival in co-culture with memory-type CD8+ T cells: equally effective in converting the memory T cell-induced DC activation into memory T cell-induced DC death; also recorded: reduces DC survival

## SIINFEKL [OVA257-264]
[2]
  induction of MC38-specific CTL activity (killing MC38): more effective in killing MC38 than a DC vaccine loaded only with tumor antigen

## IETD-CHO
[1]
  CTL-induced DC death (survival of DCs): abrogated the CTL-induced DC death

## Concanamycin A
[5]
  DC activation / phenotypic maturation (CD86, CD83): enhance DC activation
[1]
  DC killing by effector-type CD8+ T cells: completely eliminated; also recorded: abrogated their DC-killing ability

B1: soluble TNF receptor I: recombinant human soluble TNF-RI (R&D Systems) (protein, UniProt P19438 30-211, looked up)
extracellular domain: LVPHLGDREKRDSVCPQGKYIHPQNNSICCTKCHKGTYLYNDCPGPGQDTDCRECESGSFTASENHLRHCLSCSKCRKEMGQVEISSCTVDRDTVCGCRKNQYRHYWSENLFQCFNCSLCLNGTVHLSCQEKQNTVCTCHAGFFLRENECVSCSNCKKSLECTKLCLPQIENVKGTEDSGTT
modifications: extracellular domain
[4]
  DC survival in co-culture with memory-type CD8+ T cells: equally effective in converting the memory T cell-induced DC activation into memory T cell-induced DC death
